From patent US20180231554A1, “PROGRAMMED CELL DEATH (PD-1) INHIBITOR THERAPY FOR PATIENTS WITH PD-1-EXPRESSING CANCERS” (The Brigham and Women's Hospital, Inc., priority 2015, published 2018)

System: melanoma patients
Assay: Survival and IHC biomarker expression in melanoma patients undergoing anti-PD-1 therapy
Format: in vivo, human
Details: for progression-free survival: greater than 25% vs less than 25% 4E-BP1 expression in pre-treatment biopsies; for progression-free survival / overall survival: Kaplan-Meier; for patients still alive 35 months after initiation of treatment: melanoma patients with >25% p-SHP2 expression in pre-treatment biopsies; for overall survival: n=34, >25% vs less than 25% melanoma-p-S6 expression in pre-treatment biopsies
Method: As used herein, the term “progression-free survival” refers to the time from the first administration of anti-PD-1-based therapy to the first documented radiographic evidence of progressive disease. The term “overall survival” is defined as the time from the first administration of anti-PD-1 therapy to the date of death, regardless of cause.
Tumor cell lines, culture methods and clinical specimens: Human G3361 and C8161 and murine B16-F10 melanoma cell lines were cultured in RPMI-1640 medium (Life Technologies) supplemented with 10% (v/v) fetal bovine serum (Life Technologies) and 1% (v/v) penicillin streptomycin (Life Technologies) and human MKL-1, MKL-2, MS-1, and WaGa Merkel cell carcinoma cell lines in RPMI-1640 medium supplemented with 20% (v/v) fetal bovine serum and 1% (v/v) penicillin streptomycin. Clinical melanoma specimens were obtained from patients in accordance with the Institutional Review Boards of Partners Health Care Research Management, Boston, Mass. and the University of Zurich, Switzerland. Informed consent was obtained from all subjects.
Immunohistochemical (IHC) staining methods: Tumor biopsy sections were deparaffininzed in xylene and subsequently rehydrated with 100%, 95%, and 75% ethanol and deionized H2O. Sections were placed in target retrieval solution (Dako) and boiled in a Pascal pressure chamber (Dako) at 125° C. for 30 seconds, 90° C. for 10 seconds, and then cooled down to room temperature. IHC was performed using the two-step peroxidase or alkaline phosphatase method. For peroxidase-based detection of p-S6 and p-AKT, sections were incubated with 1 ug/ml rabbit anti-p-56 ribosomal protein or rabbit anti-p-AKT (Ser473) antibody (Cell Signaling Technology) at 4° C. overnight and then incubated with a 1:200 dilution of goat anti-rabbit IgG peroxidase conjugated antibody (Vector Laboratories) at room temperature for 1 hour. Immunoreactivity was detected using the NovaRed peroxidase substrate (Vector laboratories), according to the manufacturer's protocol. For alkaline phosphatase-based detection of t-SHP2, p-SHP2, p-S6, p-AKT, p-PI3K, p-PDK1, 4E-BP1, or p-eIF-4G, sections were incubated with a 1:200 dilution of t-SHP2, p-SHP2 (Santa Cruz Biotechnology), p-S6, p-AKT, p-PI3K, p-PDK1, 4E-BP1, or p-eIF-4G antibody (Cell Signaling Technology) for 1 hour at room temperature, followed by incubation with a 1:100 dilution of biotin-conjugated secondary antibody (R&D Systems) for 30 minutes at room temperature and a subsequent incubation with a 1:100 dilution of streptavidin-alkaline phosphatase (Roche) for 30 minutes at room temperature. Immunoreactivity was detected using the FAST Red Chromogen System (Biolegend), per the manufacturer's instructions. Nuclear counterstaining (blue) was performed with Meyer's haemalum for both methods.
Imaging and quantification of IHC tumor sections: All images of IHC-stained sections were analyzed with a Nikon microscope (DXM 1200F) and captured using the NIS-Elements software (BR 2.30 Nikon). Expression of p-S6 and 4E-BP1 antigens was graded by n=2-3 independent investigators blinded to the study outcome on a scale of 0-4 (0: no p-S6 expression by melanoma cells; 1: p-S6 expression in 1%-25%; 2: 26%-50%; 3:51%-75%; 4: >75% of melanoma cells). For each slide, at least two areas with the highest numbers of 5-100(+) and MART-1(+) melanoma cells, as determined in serial sections, were selected for analysis.

Substance	progression-free survival	patients still alive 35 months after initiation of treatment	overall survival
Nivolumab	significantly increased	100%	significantly enhanced
Pembrolizumab	significantly increased	100%	significantly enhanced
